Experimental data reported in the NIST ThermoML archive (doi:10.1016/j.tca.2004.08.013).
Numbers after ± are expanded uncertainties.

What was measured:
[1] = 101.33 kPa, Liquid
[2] = xn = mol fraction of the nth substance listed; conditions: 303.15 K, 101.3 kPa, Liquid

Row | SMILES | mass density ([1]; 303.15 K) | viscosity ([1]; 303.15 K) | mass density ([1]; 313.15 K) | viscosity ([1]; 313.15 K) | further results
1 | ClC(Cl)(Cl)Cl [tetrachloromethane] | 1574.78 ± 1.4 kg/m3 | 0.852 ± 0.014 mPa·s | 1555.02 ± 1.4 kg/m3 | 0.76 ± 0.013 mPa·s | 
2 | CCCN(CCC)CCC [tripropylamine] | 749.15 ± 0.78 kg/m3 | 0.598 ± 0.011 mPa·s | 740.41 ± 0.79 kg/m3 | 0.538 ± 0.01 mPa·s | 
3 | CCCNCCC [dipropylamine] | 731.21 ± 0.8 kg/m3 | 0.512 ± 0.01 mPa·s | 726.15 ± 3 kg/m3 | 0.423 ± 0.008 mPa·s | 
4 | CCOC(C)=O [ethyl acetate] | 888.42 ± 0.45 kg/m3 | 0.399 ± 0.008 mPa·s |  |  | 
5 | C1COCCO1 [1,4-dioxane] | 1022.3 ± 0.3 kg/m3 | 1.086 ± 0.018 mPa·s |  |  | 
6 | CCCCN [1-butanamine] | 728.65 ± 0.81 kg/m3 | 0.444 ± 0.009 mPa·s | 719.17 ± 0.82 kg/m3 | 0.393 ± 0.008 mPa·s | 
7 | CCN(CC)CC [triethylamine] | 718.44 ± 0.82 kg/m3 | 0.33 ± 0.007 mPa·s |  |  | 
8 | CCCCOC(C)=O [butyl ethanoate] | 871.28 ± 0.48 kg/m3 | 0.644 ± 0.011 mPa·s |  |  | 
9 | CCCCNCCCC [dibutylamine] | 752.28 ± 0.77 kg/m3 | 0.758 ± 0.013 mPa·s | 743.44 ± 0.78 kg/m3 | 0.665 ± 0.012 mPa·s | 
10 | CCC(C)=O [butanone] | 799.69 ± 0.61 kg/m3 | 0.365 ± 0.007 mPa·s |  |  | 
11 | CCN(CC)CC [triethylamine] + CCOC(C)=O |  |  |  |  | mass density ([2]; x1 = 0.0127): 885.47 ± 0.59 kg/m3; viscosity ([2]; x1 = 0.0127): 0.395 ± 0.006 mPa·s; mass density ([2]; x1 = 0.0205): 883.69 ± 0.59 kg/m3; viscosity ([2]; x1 = 0.0205): 0.389 ± 0.006 mPa·s; mass density ([2]; x1 = 0.0323): 881 ± 0.59 kg/m3; viscosity ([2]; x1 = 0.0323): 0.386 ± 0.006 mPa·s; mass density ([2]; x1 = 0.0407): 879.1 ± 0.59 kg/m3; viscosity ([2]; x1 = 0.0407): 0.382 ± 0.006 mPa·s; mass density ([2]; x1 = 0.0522): 876.53 ± 0.6 kg/m3; viscosity ([2]; x1 = 0.0522): 0.379 ± 0.006 mPa·s; mass density ([2]; x1 = 0.0608): 874.62 ± 0.6 kg/m3; viscosity ([2]; x1 = 0.0608): 0.376 ± 0.006 mPa·s; mass density ([2]; x1 = 0.0702): 872.41 ± 0.6 kg/m3; viscosity ([2]; x1 = 0.0702): 0.374 ± 0.006 mPa·s; mass density ([2]; x1 = 0.0783): 870.58 ± 0.6 kg/m3; viscosity ([2]; x1 = 0.0783): 0.371 ± 0.006 mPa·s; mass density ([2]; x1 = 0.09): 867.91 ± 0.6 kg/m3; viscosity ([2]; x1 = 0.09): 0.369 ± 0.006 mPa·s; mass density ([2]; x1 = 0.0996): 866.05 ± 0.6 kg/m3; viscosity ([2]; x1 = 0.0996): 0.367 ± 0.006 mPa·s
